The source of these data is US12419862B2, “Use of a cathepsin s inhibitor against the formation of anti-drug antibodies” (Hoffmann-La Roche Inc., priority 2018, dated 2025).

Assay [1] relates to IgG response to murine surrogate FAP-OX40. Briefly: ADA against murine surrogate FAP-OX40 in wild-type mice, ELISA (Example 6). The class given is in vivo, C57BL/6 mice. As to conditions: 40 mg/kg/day via food admix from one week before first immunization until day 23. How it is done: 10-week-old female mice C57BL/6 were purchased from Charles River Laboratories (Germany) and housed at the animal facilities in room with air-conditioned under a 12 hours light/dark cycle in macrolon boxes with enriched environment and free access to water and food. 12.5 mg/kg of muFAP-OX40iMab (P1AD4396-005) were injected at day 1, 4 and 8 intravenously to the group 2 (n=10 mice) and at day 1, 4, 8, 11, 15, 18 and 22 to the group 3 (n=10 mice) respectively. The dosage of (2S,4R)-4-[4-(1-methyl-1H-pyrazol-4-yl)-2-trifluoromethyl-benzenesulfonyl]-1-(1-trifluoromethyl-cyclopropanecarbonyl)-pyrrolidine-2-carboxylic acid (1-cyano-cyclopropyl)-amide consumption was 40 mg/kg/day. […]
Nunc Maxisorp flat-bottom 96 well ELISA plates were coated with 100 μl per well of FAP(28H1)-OX40(49B4) PGLALA (P1AD4523) or anti OX40 moIgG2a (P1AD4561) respectively at 5 μg/mL in NaHCO3100 mM buffer overnight at +4° C. […] 100 μl of substrate P-nitrophenyl phosphate ready to use (Life Technologies, Cat no 002212) were added per well and after 10 min incubation at room temperature, the OD at 405 nm was read as an end-point measurement with a Versamax ELISA reader.
(In general: In an ELISA, binding on a coated surface is turned into a signal by an enzyme label.)

Assay [2] relates to IgG response to murine hemi-surrogate CEA-TCB. Kind of assay: ADA against murine hemi-surrogate CEA-TCB in hIgG1 Tg mice, ELISA (Example 8). The class given is in vivo, C57BL/6-Tg (hIgG1,k,l) mice. As to conditions: 40 mg/kg/day via food admix from one week before first immunization until day 28, vs vehicle. How it is done: 11-15-week-old mice C57BL/6-Tg (hIgG1,k,l) mixed gender (n=20) were purchased from Taconic (Denmark) and housed at the animal facilities in room with air-conditioned under a 12 hours light/dark cycle in macrolon boxes with enriched environment and free access to water and food. 7×10 μg of CEA-TCB (P1AE3536, huCEA binder CH1A1A/mouse CD3 binder 2C11) were injected at day 0, 4, 7, 11, 14, 18 and 21 subcutaneously in the right flank or the left flank alternatively. The dosage of (2S,4R)-4-[4-(1-methyl-1H-pyrazol-4-yl)-2-trifluoromethyl-benzenesulfonyl]-1-(1-trifluoromethyl-cyclopropanecarbonyl)-pyrrolidine-2-carboxylic acid (1-cyano-cyclopropyl)-amide consumption was 40 mg/kg/day. […]
Nunc Maxisorp flat-bottom 96 well ELISA plates were coated with 100 μl per well of huCEA IgG PGLALA (P1AD9477) or hu anti mouse CD3 (P1AE2779-001-01) respectively at 5 μg/mL in NaHCO3100 mM buffer overnight at +4° C. […] 100 μl of substrate P-nitrophenyl phosphate ready to use (Life Technologies, Cat no 002212) were added per well and after 10 min incubation at room temperature, the OD at 405 nm was read as an end-point measurement with a Versamax ELISA reader.

As for `Cn1cc(-c2ccc(S(=O)(=O)[C@@H]3C[C@@H](C(=O)NC4(C#N)CC4)N(C(=O)C4(C(F)(F)F)CC4)C3)c(C(F)(F)F)c2)cn1` [cathepsin S inhibitor, (2S,4R)-4-[4-(1-methyl-1H-pyrazol-4-yl)-2-trifluoromethyl-benzenesulfonyl]-1-(1-trifluoromethyl-cyclopropanecarbonyl)-pyrrolidine-2-carboxylic acid (1-cyano-cyclopropyl)-amide], in assay [1], the “ADA specific to FAP (VHVL) domain of murine surrogate FAP-OX40” value is “prevents ADA” and the “OX40-specific ADA to murine surrogate FAP-OX40” value is on record as “prevents ADA”. In assay [2], the “ADA specific to CD3 binder (2C11) of CEA-TCB” value is “significantly reduced ADA to CD3 binder” and the “CEA-specific ADA to CEA-TCB” value is “reduction of CEA-specific ADA was not significant”.
